PubChem BioAssay (NCI)
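1) Cells in 96-well plates. 2) Compound, 48 h, 5 concentrations. 3) Linear interpolation between surrounding doses. 4) Unreached endpoint = highest concentration. TGI denotes the concentration required for complete inhibition of growth.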

What was measured:
Test in all cases: growth of human tumour cells (NCI), 48 h
SN12C renal = test system: SN12C renal
SF-295 CNS = test system: SF-295 CNS
LOX IMVI melanoma = test system: LOX IMVI melanoma
IGROV1 ovarian = test system: IGROV1 ovarian
TK-10 renal = test system: TK-10 renal
UO-31 renal = test system: UO-31 renal
MCF7 breast = test system: MCF7 breast
SK-MEL-5 melanoma = test system: SK-MEL-5 melanoma
SNB-19 CNS = test system: SNB-19 CNS
HOP-62 NSCLC = test system: HOP-62 NSCLC
SK-MEL-28 melanoma = test system: SK-MEL-28 melanoma
OVCAR-8 ovarian = test system: OVCAR-8 ovarian
M14 melanoma = test system: M14 melanoma
RXF 393 renal = test system: RXF 393 renal
UACC-257 melanoma = test system: UACC-257 melanoma
T-47D breast = test system: T-47D breast
PC-3 prostate = test system: PC-3 prostate
HT29 colon = test system: HT29 colon
EKVX NSCLC = test system: EKVX NSCLC
OVCAR-4 ovarian = test system: OVCAR-4 ovarian
BT-549 breast = test system: BT-549 breast
CCRF-CEM leukemia = test system: CCRF-CEM leukemia
KM12 colon = test system: KM12 colon
UACC-62 melanoma = test system: UACC-62 melanoma
K-562 leukemia = test system: K-562 leukemia
RPMI-8226 leukemia = test system: RPMI-8226 leukemia
HOP-92 NSCLC = test system: HOP-92 NSCLC
SK-OV-3 ovarian = test system: SK-OV-3 ovarian
OVCAR-5 ovarian = test system: OVCAR-5 ovarian
HS 578T breast = test system: HS 578T breast
OVCAR-3 ovarian = test system: OVCAR-3 ovarian
HL-60(TB) leukemia = test system: HL-60(TB) leukemia
HCT-116 colon = test system: HCT-116 colon
SF-268 CNS = test system: SF-268 CNS
SW-620 colon = test system: SW-620 colon
SNB-75 CNS = test system: SNB-75 CNS
NCI-H23 lung = test system: NCI-H23 lung
HCT-15 colon = test system: HCT-15 colon
786-0 renal = test system: 786-0 renal
NCI-H226 lung = test system: NCI-H226 lung
SK-MEL-2 melanoma = test system: SK-MEL-2 melanoma
A498 renal = test system: A498 renal
MALME-3M melanoma = test system: MALME-3M melanoma
DU-145 prostate = test system: DU-145 prostate
A549 NSCLC = test system: A549 NSCLC
ACHN renal = test system: ACHN renal
MDA-MB-435 = test system: MDA-MB-435
MOLT-4 leukemia = test system: MOLT-4 leukemia
CAKI-1 renal = test system: CAKI-1 renal
HCC-2998 colon = test system: HCC-2998 colon
NCI-H460 lung = test system: NCI-H460 lung
U251 CNS = test system: U251 CNS
NCI/ADR-RES ovarian = test system: NCI/ADR-RES ovarian
SF-539 CNS = test system: SF-539 CNS
COLO 205 colon = test system: COLO 205 colon
SR leukemia = test system: SR leukemia
MDA-MB-231 breast = test system: MDA-MB-231 breast

C=CC(=O)N1C/C(=C\c2ccc(OC)cc2)C(=O)/C(=C/c2ccc(OC)cc2)C1
TGI (SN12C renal): 6.83 µM | TGI (SF-295 CNS): 6.98 µM | TGI (LOX IMVI melanoma): 3.37 µM | TGI (IGROV1 ovarian): > 21.4 µM | TGI (TK-10 renal): > 36.1 µM | TGI (UO-31 renal): 3.52 µM | TGI (MCF7 breast): 5.01 µM | TGI (SK-MEL-5 melanoma): > 20.4 µM | TGI (SNB-19 CNS): 28.3 µM | TGI (HOP-62 NSCLC): 11.2 µM | TGI (SK-MEL-28 melanoma): 10.8 µM | TGI (OVCAR-8 ovarian): > 24.2 µM | TGI (M14 melanoma): 4.78 µM | TGI (RXF 393 renal): 3.23 µM | TGI (UACC-257 melanoma): > 31.6 µM | TGI (T-47D breast): > 100 µM | TGI (PC-3 prostate): 4.19 µM | TGI (HT29 colon): 2.88 µM | TGI (EKVX NSCLC): 40.7 µM | TGI (OVCAR-4 ovarian): 13.4 µM | TGI (BT-549 breast): 6.24 µM | TGI (CCRF-CEM leukemia): > 25.7 µM | TGI (KM12 colon): 5.22 µM | TGI (UACC-62 melanoma): 4.37 µM | TGI (K-562 leukemia): > 100 µM | TGI (RPMI-8226 leukemia): > 100 µM | TGI (HOP-92 NSCLC): 27 µM | TGI (SK-OV-3 ovarian): 8.39 µM | TGI (OVCAR-5 ovarian): 16.2 µM | TGI (HS 578T breast): > 28.7 µM | TGI (OVCAR-3 ovarian): 5.67 µM | TGI (HL-60(TB) leukemia): > 100 µM | TGI (HCT-116 colon): 0.686 µM | TGI (SF-268 CNS): 17.1 µM | TGI (SW-620 colon): 8.02 µM | TGI (SNB-75 CNS): 27.3 µM | TGI (NCI-H23 lung): 4.79 µM | TGI (HCT-15 colon): 4.23 µM | TGI (786-0 renal): 4.17 µM | TGI (NCI-H226 lung): 4.6 µM | TGI (SK-MEL-2 melanoma): 8.57 µM | TGI (A498 renal): 3.54 µM | TGI (MALME-3M melanoma): 8.4 µM | TGI (DU-145 prostate): 23.1 µM | TGI (A549 NSCLC): 8.16 µM | TGI (ACHN renal): 3.47 µM | TGI (MDA-MB-435): 7.76 µM | TGI (MOLT-4 leukemia): > 27.8 µM | TGI (CAKI-1 renal): 11.7 µM | TGI (HCC-2998 colon): 2.87 µM | TGI (NCI-H460 lung): 6.82 µM | TGI (U251 CNS): 6.43 µM | TGI (NCI/ADR-RES ovarian): > 31 µM | TGI (SF-539 CNS): 3.53 µM | TGI (COLO 205 colon): 9.99 µM | TGI (SR leukemia): > 100 µM | TGI (MDA-MB-231 breast): 7.98 µM
